Measurements reported in publication PMC12481576, “Barbituric Acid Derivatives as Covalent Inhibitors of Leishmania braziliensis Dihydroorotate Dehydrogenase” (Journal of Medicinal Chemistry, 2025).
Like-named read-outs stand apart in the source and are kept apart here.

What was measured:
[1] = Cell viability / cytotoxicity assay (PrestoBlue, 72 h); assay type: cell-based; conditions: human; THP-1 cell line, 72 h, max 200 μM; read-out: CC50
Experimental: THP-1 cells (American Type Cell Collection, #TIB-202) were acquired in 2019 and stored frozen in liquid nitrogen. The cells were then maintained in RPMI 1640 (Thermo Fisher Scientific, #S31800–022) at 37 °C in a 5% CO2 atmosphere and routinely tested for Mycoplasma contamination by PCR using the primers 5′-[…] and 5′-[…]. To test the toxicity of compounds, 5000 cells were added to 96-well plates with a final volume of 80 μL centrifuged at 400g for 2 min and incubated with 150 ng/mL of phorbol myristate acetate (Merck, #P8139) for 48 h. The medium was replaced, and after 24 h, the compounds were added and tested at decreasing concentrations starting from 200 μM (10 μL/well). After 72 h of incubation, 10 μL of PrestoBlue Cell Viability Reagent (Thermo Fisher Scientific, #A13262) was added per well. After adding the reagent, the cells were incubated for 2 h at 37 °C in a 5% CO2 atmosphere, and fluorescence readings were performed using the SpectraMax M3 reader (excitation at 560 nm and emission at 590 nm).

LbDHODH = LbDHODH (Leishmania braziliensis, UniProt E9AI53); assay: biochemical; conditions: for IC50: LbDHODH
Chain of LbDHODH (E9AI53 entry or part of it): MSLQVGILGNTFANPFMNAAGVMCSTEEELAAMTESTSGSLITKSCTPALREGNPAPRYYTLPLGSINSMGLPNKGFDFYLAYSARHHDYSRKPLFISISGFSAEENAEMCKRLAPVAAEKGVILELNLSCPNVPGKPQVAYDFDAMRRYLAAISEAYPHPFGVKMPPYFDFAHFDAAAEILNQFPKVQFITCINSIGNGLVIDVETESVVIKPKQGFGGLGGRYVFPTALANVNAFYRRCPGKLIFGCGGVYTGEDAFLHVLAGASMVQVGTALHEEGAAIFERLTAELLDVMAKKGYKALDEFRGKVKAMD
Experimental: To assess the ability of compounds 2a–2i to inhibit LbDHODH via covalent bond formation with Cys^131, we initially screened them at a concentration of 100 μM under two conditions: with and without a 4-h preincubation with the enzyme.
The experiments were performed in a 96-well microplate reader (SpectraMax Plus 384, Molecular Devices, USA), containing the […] of the buffer 60 mM DCIP, 50 mM Tris pH 8.15, 150 mM KCl, 0.1% Triton X-100, 50 μM DHO and 10 μM of LbDHODH at 165 nM. The reaction was monitored every 3 s at 610 nm over a period of 60 s, in triplicate, for the control and each concentration of the inhibitor. All assays were performed without incubation (0h) and with 4-h preincubation of the inhibitor with LbDHODH, using 5% DMSO (v/v) as control. […]. […] The resulting kobs values were plotted as a function of inhibitor concentration, and the data in the initial linear region was fit to determine the slope, which is kinact/KI. All regressions were performed with GraphPad Prism 9.

HsDHODH = biological target: T1, HsDHODH (Homo sapiens, UniProt Q02127); assay: Selectivity assay: HsDHODH single-dose inhibition (DCIP reduction); assay type: biochemical
T1 construct: made in house
T1 sequence (Q02127 whole entry): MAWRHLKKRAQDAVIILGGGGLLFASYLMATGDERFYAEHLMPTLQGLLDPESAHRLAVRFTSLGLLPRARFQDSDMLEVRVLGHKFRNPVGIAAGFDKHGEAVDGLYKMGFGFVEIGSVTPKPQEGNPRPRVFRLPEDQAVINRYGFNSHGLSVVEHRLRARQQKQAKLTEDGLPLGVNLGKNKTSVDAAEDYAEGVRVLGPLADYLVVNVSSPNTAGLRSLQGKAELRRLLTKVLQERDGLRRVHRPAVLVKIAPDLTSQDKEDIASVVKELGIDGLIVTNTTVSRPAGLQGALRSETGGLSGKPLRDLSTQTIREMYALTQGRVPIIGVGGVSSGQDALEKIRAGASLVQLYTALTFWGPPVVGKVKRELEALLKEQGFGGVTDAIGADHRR
Experimental: […]. This finding highlights the potential of barbituric acid derivatives as selective inhibitors of LbDHODH.
Human DHODH expression and purification were conducted following a protocol previously established in our laboratory. The purification was carried out by affinity chromatography on a Ni-NTA Agarose column (Qiagen[…] Cat. No. 30210). […] The reaction was performed in triplicate, initiated by adding 195 μL of reaction buffer to 5 μL of HsDHODH protein solution for a final concentration of 20 nM enzyme. As a blank, 195 μL of reaction buffer was added to 5 μL of Buffer A. The reaction was monitored at 610 nm every 3 s over 60 s. As a control, 5 μL of enzyme was added to 195 μL of reaction medium without compound. Enzymatic velocity was calculated, and the percentage of relative enzymatic activity was determined relative to the control.

[2] = tested on: Leishmania braziliensis promastigotes; assay: Leishmanicidal activity, promastigote growth (SYBR Green, 72 h); assay type: cell-based, Leishmania (V.) braziliensis (MHOM/BR/1975/M2904); conditions: Leishmania braziliensis, L. braziliensis promastigotes, max 200 μM
Experimental: The cultures were adjusted to 4 × 10^6 parasites per mL, and 50 μL of each culture was added on a test plate with 384 wells (Corning, #CLS3658), along with the controls and compounds to be tested. Previously diluted compounds in DMSO were added to plates in decreasing concentrations, with a maximum concentration of 200 μM. Parasites were exposed to a final concentration of DMSO in various dilutes (final = 0.5%), and the culture medium was used as the control for the experiment. […] After adding the lysis buffer, the plates were incubated in the dark for 2 h with gentle shaking. The readings were done using a SpectraMax M3 reader (excitation at 485 nm and emission at 535 nm).

[3] = LbDHODH remaining activity, compound 100 μM, 4-h preincubation, read-out: single dose (4 h) % activity
[4] = LbDHODH remaining activity, compound 100 μM, without preincubation, read-out: single dose (0 h) % activity
[5] = read-out: Single dose (0h) % activity
[6] = read-out: Single dose (4h) % activity

With `O=C1NC(=O)C(Cc2ccc(-c3ccccc3)cc2)C(=O)N1` [3f, 5-([1,1′-Biphenyl]-4-ylmethyl)pyrimidine-2,4,6(1H,3H,5H)-trione] the CC50 at 72 h [1] was greater than 200 µM, the activity at 100 µM (LbDHODH; [3]) was 34 ± 6% and the “single dose (0 h) % activity” value (LbDHODH; LbDHODH remaining activity, compound 100 μM, without preincubation, 100 µM) was 82.6 ±0.2%. The activity at 100 µM (LbDHODH; [4]) was 83 ± 0.2%, the activity at 100 µM (HsDHODH; [5]) was 93 ± 11% and the activity at 100 µM (HsDHODH; [6]) was 102 ± 10%. For the same molecule, the EC50 [2] was greater than 200 µM.
For `O=C1NC(=O)C(Cc2cccc(O)c2)C(=O)N1` [3g, 5-(3-Hydroxybenzyl)pyrimidine-2,4,6(1H,3H,5H)-trione], the CC50 at 72 h [1] was greater than 200 µM, the activity at 100 µM (LbDHODH; [3]) was 36 ± 3% and the activity at 100 µM (LbDHODH; [4]) was 93 ± 5%. For the same molecule, the activity at 100 µM (HsDHODH; [5]) was 87 ± 10%, the activity at 100 µM (HsDHODH; [6]) was 86 ± 10% and the EC50 [2] was greater than 200 µM.
`O=C1NC(=O)C(Cc2ccc(-c3ccccc3F)[nH]2)C(=O)N1` [3h, 5-((5-(2-Fluorophenyl)-1H-pyrrol-2-yl)methyl)pyrimidine-2,4,6(1H,3H,5H)-trione] showed a CC50 at 72 h [1] greater than 200 µM, an IC50 (LbDHODH; IC50 0 h, without preincubation) greater than 100 µM and an IC50 (LbDHODH; IC50 4 h, 4-h preincubation) greater than 100 µM. For the same molecule, the activity at 100 µM (LbDHODH; [5]) was 80 ± 10%, the activity at 100 µM (LbDHODH; [6]) was 80 ± 20% and the activity at 100 µM (HsDHODH; [5]) was 89 ± 10%. It also gave an activity at 100 µM (HsDHODH; [6]) of 91 ± 9% and an EC50 [2] greater than 200 µM.
Work on `O=C1NC(=O)C(CC=Cc2ccccc2)C(=O)N1` [3i, 5-Cinnamylpyrimidine-2,4,6(1H,3H,5H)-trione] yielded a CC50 at 72 h [1] of 193 ± 67 µM, an activity at 100 µM (LbDHODH; [5]) of 103 ± 3% and an activity at 100 µM (LbDHODH; [6]) of 21 ± 7%. It also gave an activity at 100 µM (HsDHODH; [5]) of 102 ± 12%, an activity at 100 µM (HsDHODH; [6]) of 98 ± 10% and an EC50 [2] greater than 200 µM.
`O=C1NC(=O)C(CCCc2ccccc2)C(=O)N1` [3ii, 5-(3-Phenylpropyl)pyrimidine-2,4,6(1H,3H,5H)-trione] gave a CC50 at 72 h [1] greater than 200 µM, an activity at 100 µM (LbDHODH; [3]) of 21 ± 7% and an activity at 100 µM (LbDHODH; [4]) of 98 ± 5%. The activity at 100 µM (HsDHODH; [5]) was 99 ± 11%, the activity at 100 µM (HsDHODH; [6]) was 96 ± 9% and the EC50 [2] was 23 ± 6 µM.
